# Measured values reported in patent US20080318847A1, “Use of Antagonist of Oxytocin and/or Vasopressin in Assisted Reproduction” (Ferring International Center SA, priority 2005, published 2008).
# Entries after “also recorded” stand apart in the source; their conditions may differ. Bridge positions count the residues as written; N and C are the ends. Square brackets hold non-standard residues; d marks the D form. Peptide text beside a SMILES is read from it. Orn = NCCC[C@H](N)C(=O)O; Mpa = O=C(O)CCS
# Assays:
# [1] = clinical use in preterm labor; cited from earlier work
# [2] = test system: uterine contractile activity; test: Transvaginal sonography of uterine contractile activity before and during atosiban infusion at embryo transfer (IVF-ET patient); type: in vivo, human
# Description: FIG. 1 presents a graph on uterine contractile activity assessed by transvaginal sonography in patient which case is described in example 1. Uterine contractions on graph B and C are marked with light color for better visualization. In the method of digital image analysis, due to the requirement of a high picture quality, a period of 4 minutes out of total 5 minutes recorded was selected for analysis. • A) Schematic presentation of a principle of non invasive assessment of uterine contractility (done similarly to Fanchin et al. [Hum. Reprod. 1998; 13(7):1968-74]) Description: U—uterus, En—endometrium (the inner layer of the uterus)—during the uterine contractions, changes in texture and contour of endometrium are observed, My—myometrium (the middle layer of uterus, built of smooth muscle tissue), T—testing segment, where movements of contour of endometrium representing the uterine contractile activity are assessed • B) Graph presenting uterine contractile activity before the application of oxytocin antagonist atosiban. Contractile hyperactivity is seen. Legend: ↑—uterine contraction, 1 min—segment representing 1 min of digital recording, T—testing segment, where movements of contour of endometrium reflecting the uterine contractile activity are assessed; C) Graph presenting uterine contractile activity in the time of maximal effect of oxytocin antagonist atosiban. […] Legend: ↑—uterine contraction, 1 min—segment representing 1 min of digital recording, T—testing segment, where movements of contour of endometrium reflecting the uterine contractile activity are assessed
# In the 8th cycle of the treatment, a decision on application of a medicament containing atosiban (antagonist of oxytocin and vasopressin) was drawn, aiming to improve the uterine receptivity. The medicament was given in intravenous infusion, which started 60 minutes before the transfer and was continued throughout 2 hours after the transfer. […]
# [3] = after the initiation of the intravenous infusion; cited from earlier work
# human sperm = test: Human Sperm Motility Bioassay (embryotoxicity); type: cell-based
# Description: In order to verify the embryotoxicity of atosiban a study on influence of atosiban on parameters of human sperm motility was performed (Human Sperm Motility Bioassay). The technique used in the study is a standard in the quality control and evaluation of embryotoxicity in IVF laboratories.
# The study was performed on samples of fresh human sperm taken from 15 healthy donors with perfect seminologic parameters. After selecting the alive and motile population (swim-up ascending migration method), sperm samples were transferred to the sterile Eppendorf tubes containing Human Sperm Preparation Medium alone or with atosiban in concentrations of 300 nM, 1000 nM, 3000 nM, last concentrations being 10-fold to maximal concentrations achieved in humans in the course of treatment of preterm labor. Sperm motility assessment was performed with computer assisted sperm analyzer Hobson Sperm Tracker in the 1st, 8th and 24th hour of exposition to atosiban.
# Following parameters were analyzed:
# a) percentage of actively motile sperm cells (Active %); b) percentage of motile sperm cells (Motility %); c) percentage of hyperactively motile sperm cells (Hyper %), d) VSL—straight line velocity, e) VCL—total velocity, f) ALH—amplitude of lateral head displacements. Results are presented at FIG. 2 and FIG. 3. In the statistic analysis, analysis of variance (ANOVA) was applied.
# [4] = test system: uterine receptivity at the embryo transfer; test: Clinical application of atosiban at embryo transfer (IVF-ET): outcome and tolerability; type: in vivo, human
# Text: Clinical application of medicament containing atosiban—an antagonist of oxytocin and vasopressin for increasing the uterine receptivity at the embryo transfer in the course of assisted reproduction procedure of IVF-ET (in vitro fertilization-embryo transfer).
# In the 8th cycle of the treatment, a decision on application of a medicament containing atosiban (antagonist of oxytocin and vasopressin) was drawn, aiming to improve the uterine receptivity. The medicament was given in intravenous infusion, which started 60 minutes before the transfer and was continued throughout 2 hours after the transfer. 10 minutes before the start of administration (70 minutes before the transfer) transvaginal sonography with 5-minute digital registration of uterine contractions was performed. […] Immediately after, a continuous infusion of 18 mg/hour of atosiban was connected using the infusion pump and was continued throughout the next 60 minutes. 45 minutes after the initiation of the infusion, transvaginal sonography with digital image registration was repeated. Between 55th and 60th minute of infusion, a sonography-guided transfer of 2 embryos was performed. After the transfer, the dosage of atosiban was changed to 6 mg/hour. Infusion was finished 2 hours after the transfer, total dose administered was 37.5 mg.
# The mode of application of atosiban described above provided the maximal effect at the time of embryo transfer (it was proven that stable concentrations of atosiban are reached about an hour after the initiation of the infusion). Patient stayed in horizontal position until an hour after termination of the infusion and limited their activities on that day. At the control visit done 2 weeks after the embryo transfer, a pregnancy test was done with positive result.
# [5] = test system: uterine contractile activity; conditions: non pregnant humans, vasopressin administrations VAS-1 to VAS-3; Bossmar et al.; cited from earlier work
# [6] = target: vasopressin V1a receptors (Homo sapiens, UniProt P37288); conditions: V1a versus oxytocin receptors; cited from earlier work
# [7] = test system: human pregnant myometrium; conditions: cited from earlier work
# [8] = in vivo; cited from earlier work
# [9] = atosiban 300 nM, 1000 nM, 3000 nM, 1st, 8th and 24th hour, ANOVA
# vasopressin V1a receptors, sequence (P37288 whole entry): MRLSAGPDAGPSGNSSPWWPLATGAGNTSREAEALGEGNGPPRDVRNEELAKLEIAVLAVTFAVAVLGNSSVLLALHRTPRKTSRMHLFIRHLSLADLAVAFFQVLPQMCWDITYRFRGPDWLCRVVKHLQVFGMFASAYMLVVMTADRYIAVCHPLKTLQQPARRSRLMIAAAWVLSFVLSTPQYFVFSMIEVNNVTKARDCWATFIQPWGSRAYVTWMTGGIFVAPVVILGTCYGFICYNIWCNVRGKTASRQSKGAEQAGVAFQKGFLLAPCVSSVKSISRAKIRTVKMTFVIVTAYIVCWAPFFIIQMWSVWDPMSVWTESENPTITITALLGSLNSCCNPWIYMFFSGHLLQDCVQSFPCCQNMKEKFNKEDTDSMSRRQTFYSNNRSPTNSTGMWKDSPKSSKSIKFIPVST
compound,measurement,setting,value
CCOc1ccc(C[C@H]2NC(=O)CCSSC[C@@H](C(=O)N3CCC[C@H]3C(=O)N[C@@H](CCCN)C(=O)NCC(N)=O)NC(=O)[C@H](CC(N)=O)NC(=O)[C@H]([C@@H](C)O)NC(=O)[C@H]([C@@H](C)CC)NC2=O)cc1 [atosiban] ([Mpa][dY](Et)ITNCP[Orn]G-NH2; disulfide 1-6),side effects,[1],minimal side effects
same,"uterine contractions, method II (digital analysis of displacements of endometrial contour)","[2]; after the administration of atosiban i.v. (stable blood levels), 11 contractions/4 min before administration",7 contractions/4 min
same,"uterine contractions, method I (inspection and manual registration of contractions on an accelerated film sequence)","[2]; after the administration of atosiban i.v. (stable blood levels, 45 minutes after initiation of infusion), 15 contractions/5 min before administration",8 contractions/5 min
same,uterine contractile activity (change versus before atosiban),[2]; time of maximal effect / stable blood levels of atosiban,notably decreased; also recorded: significant reduction
same,time until stable concentrations are reached,[3],about an hour
same,"percentages of actively motile, motile and hyperactively motile sperm (Active %, Motility %, Hyper %) versus control",human sperm; [9],No significant differences
same,"sperm movement parameters (VCL, VSL, ALH) versus control",human sperm; [9],no significant differences
same,"parameters of human sperm motility (Active %, Motility %, Hyper %, VSL, VCL, ALH) versus control samples","human sperm; atosiban 300 nM, 1000 nM, 3000 nM, in vitro, ANOVA",does not inhibit; also recorded: No significant differences
same,embryotoxicity (concluded from sperm motility bioassay),human sperm; atosiban up to 3000 nM,lacks embryotoxic potential; also recorded: lack of embryotoxicity
same,pregnancy test,"[4]; 2 weeks after the embryo transfer, atosiban 6.75 mg bolus, 18 mg/hour then 6 mg/hour i.v.",positive
same,transvaginal sonography finding,[4]; 4 weeks after the transfer,"intrauterine, normal twin pregnancy"
same,adverse reactions,"[4]; bolus dose of 6.75 mg intravenously, 60 minutes before the transfer",no adverse reactions
COc1ccc(S(=O)(=O)N2c3ccc(Cl)cc3[C@](O)(c3ccccc3Cl)[C@@H]2C(=O)N2CCC[C@H]2C(N)=O)cc1OC [relcovaptan],uterine contractility (area under curve of intrauterine pressure) relative to placebo,[5],decreasing the uterine contractility
same,receptor affinity profile,[6],greater affinity towards vasopressin V1a receptors as compared to oxytocin receptors
barusiban,inhibition of contractile activity,[7]; in the range of oxytocin concentrations that occur in humans,total inhibition
same,potency as inhibitor of uterine contractions compared to atosiban,[7]; in vitro,more potent
same,myometrium contractile activity after administration,"[7]; oxytocin stimulated, in vitro, Pierzynski et al.",significantly reduced
same,estimated half time of a single dose,[8],7 h
